The values below come from ChEMBL document CHEMBL3627608, “Crystal structures of human RIP2 kinase catalytic domain complexed with ATP-competitive inhibitors: Foundations for understanding inhibitor selectivity” (Bioorg Med Chem, 2015).

Experiment [1] deals with Protein kinase C theta type (Homo sapiens) (UniProt Q04759). Nature of the experiment: Inhibition of PKCtheta (unknown origin) at 10 uM after 120 mins P33 radiolabeled kinase activity assay.
In experiment [2] the target is Bone morphogenetic protein receptor type-2 (Homo sapiens) (UniProt Q13873). Nature of the experiment: Inhibition of BMPR2 (unknown origin) at 10 uM after 120 mins P33 radiolabeled kinase activity assay.
Bone morphogenetic protein receptor type-2 (Homo sapiens), sequence (Q13873 whole entry): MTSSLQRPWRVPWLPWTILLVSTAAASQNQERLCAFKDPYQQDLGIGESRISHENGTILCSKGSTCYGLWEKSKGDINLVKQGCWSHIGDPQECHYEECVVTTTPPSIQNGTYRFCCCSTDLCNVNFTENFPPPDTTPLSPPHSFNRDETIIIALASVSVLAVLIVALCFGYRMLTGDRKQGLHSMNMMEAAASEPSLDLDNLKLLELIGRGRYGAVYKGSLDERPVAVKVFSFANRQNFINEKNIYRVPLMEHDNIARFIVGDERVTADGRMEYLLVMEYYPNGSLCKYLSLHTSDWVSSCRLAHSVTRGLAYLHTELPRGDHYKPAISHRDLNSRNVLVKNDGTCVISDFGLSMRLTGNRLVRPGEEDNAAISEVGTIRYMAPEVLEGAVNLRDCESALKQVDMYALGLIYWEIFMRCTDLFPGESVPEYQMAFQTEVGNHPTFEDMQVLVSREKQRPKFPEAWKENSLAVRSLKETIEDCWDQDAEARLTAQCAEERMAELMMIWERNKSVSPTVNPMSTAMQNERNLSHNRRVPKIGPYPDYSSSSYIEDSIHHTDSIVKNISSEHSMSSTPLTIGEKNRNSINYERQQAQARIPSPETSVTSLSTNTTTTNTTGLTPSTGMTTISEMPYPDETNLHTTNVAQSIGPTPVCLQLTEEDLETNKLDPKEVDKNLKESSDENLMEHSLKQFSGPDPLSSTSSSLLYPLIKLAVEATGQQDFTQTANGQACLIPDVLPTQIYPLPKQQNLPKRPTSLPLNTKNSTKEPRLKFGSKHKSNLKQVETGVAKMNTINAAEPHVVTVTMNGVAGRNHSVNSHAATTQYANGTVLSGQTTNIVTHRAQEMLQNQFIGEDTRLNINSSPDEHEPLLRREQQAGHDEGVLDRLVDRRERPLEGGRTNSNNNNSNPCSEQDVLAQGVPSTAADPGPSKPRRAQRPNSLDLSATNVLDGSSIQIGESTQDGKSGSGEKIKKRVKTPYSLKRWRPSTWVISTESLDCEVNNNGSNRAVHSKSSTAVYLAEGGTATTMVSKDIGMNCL
Experiment [3] has as its target Dual specificity mitogen-activated protein kinase kinase 4 (Homo sapiens) (UniProt P45985). Nature of the experiment: Inhibition of MKK4 (unknown origin) at 10 uM after 120 mins P33 radiolabeled kinase activity assay.
The target in experiment [4] is Serine/threonine-protein kinase 16 (Homo sapiens) (UniProt O75716). Nature of the experiment: Inhibition of STK16 (unknown origin) at 10 uM after 120 mins P33 radiolabeled kinase activity assay.
Serine/threonine-protein kinase 16 (Homo sapiens), sequence (O75716 whole entry): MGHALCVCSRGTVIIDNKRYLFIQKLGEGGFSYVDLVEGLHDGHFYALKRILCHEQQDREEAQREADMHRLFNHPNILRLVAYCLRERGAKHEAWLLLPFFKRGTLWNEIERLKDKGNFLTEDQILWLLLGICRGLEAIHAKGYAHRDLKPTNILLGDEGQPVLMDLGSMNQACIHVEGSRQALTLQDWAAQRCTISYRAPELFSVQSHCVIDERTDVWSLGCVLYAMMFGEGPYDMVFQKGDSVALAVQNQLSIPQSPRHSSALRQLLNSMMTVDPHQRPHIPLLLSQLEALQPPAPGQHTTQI
The target in experiment [5] is Serine/threonine-protein kinase Sgk2 (Homo sapiens) (UniProt Q9HBY8). As to the kind of experiment: Inhibition of SGK2 (unknown origin) at 10 uM after 120 mins P33 radiolabeled kinase activity assay.
Serine/threonine-protein kinase Sgk2 (Homo sapiens), sequence (Q9HBY8 whole entry): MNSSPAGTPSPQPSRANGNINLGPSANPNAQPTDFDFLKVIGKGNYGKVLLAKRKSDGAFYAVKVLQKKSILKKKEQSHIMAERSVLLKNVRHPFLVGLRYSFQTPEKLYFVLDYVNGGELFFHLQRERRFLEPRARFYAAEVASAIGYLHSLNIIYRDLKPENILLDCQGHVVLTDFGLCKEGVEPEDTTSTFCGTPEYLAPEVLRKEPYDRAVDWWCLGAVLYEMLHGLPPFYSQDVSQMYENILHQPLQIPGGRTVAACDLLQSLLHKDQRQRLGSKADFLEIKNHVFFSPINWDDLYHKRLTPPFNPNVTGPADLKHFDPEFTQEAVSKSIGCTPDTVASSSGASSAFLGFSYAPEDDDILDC
Experiment [6] has as its target Mitogen-activated protein kinase 10 (Homo sapiens) (UniProt P53779). Nature of the experiment: Inhibition of JNK3 (unknown origin) at 10 uM after 120 mins P33 radiolabeled kinase activity assay.
Experiment [7] has as its target Activin receptor type-1B (Homo sapiens) (UniProt P36896). Nature of the experiment: Inhibition of ALK4 (unknown origin) at 10 uM after 120 mins P33 radiolabeled kinase activity assay.
In experiment [8] the target is Dual specificity mitogen-activated protein kinase kinase 6 (Homo sapiens) (UniProt P52564). As to the kind of experiment: Inhibition of MKK6 (unknown origin) at 10 uM after 120 mins P33 radiolabeled kinase activity assay.
The target in experiment [9] is Cyclin-Y/Cyclin-dependent kinase 16 (Homo sapiens) (UniProt Q00536+Q8ND76). Nature of the experiment: Inhibition of CDK16/cyclin Y (unknown origin) at 10 uM after 120 mins P33 radiolabeled kinase activity assay. The experiment is classed as protein-complex assay.
Experiment [10] deals with Bone morphogenetic protein receptor type-1B (Homo sapiens) (UniProt O00238). Nature of the experiment: Inhibition of ALK6 (unknown origin) at 10 uM after 120 mins P33 radiolabeled kinase activity assay.
Experiment [11] deals with Mitogen-activated protein kinase kinase kinase 8 (Homo sapiens) (UniProt P41279). Nature of the experiment: Inhibition of COT1 (unknown origin) at 10 uM after 120 mins P33 radiolabeled kinase activity assay.
Mitogen-activated protein kinase kinase kinase 8 (Homo sapiens), sequence (P41279 whole entry, looked up): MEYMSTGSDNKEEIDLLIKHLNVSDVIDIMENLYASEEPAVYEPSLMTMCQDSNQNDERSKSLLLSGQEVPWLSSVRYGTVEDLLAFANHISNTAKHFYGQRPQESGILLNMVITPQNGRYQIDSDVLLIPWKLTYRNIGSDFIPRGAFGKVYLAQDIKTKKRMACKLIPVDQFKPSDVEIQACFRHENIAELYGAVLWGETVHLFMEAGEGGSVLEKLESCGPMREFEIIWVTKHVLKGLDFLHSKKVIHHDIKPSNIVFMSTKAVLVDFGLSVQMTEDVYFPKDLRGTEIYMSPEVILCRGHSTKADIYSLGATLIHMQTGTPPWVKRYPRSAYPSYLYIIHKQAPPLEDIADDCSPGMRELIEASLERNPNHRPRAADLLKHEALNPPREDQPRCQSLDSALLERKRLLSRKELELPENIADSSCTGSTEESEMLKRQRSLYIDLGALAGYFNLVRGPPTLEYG
The target in experiment [12] is Mitogen-activated protein kinase kinase kinase 21 (Homo sapiens) (UniProt Q5TCX8). Nature of the experiment: Inhibition of MLK4 (unknown origin) at 10 uM after 120 mins P33 radiolabeled kinase activity assay.
Experiment [13] concerns the target Serine/threonine-protein kinase tousled-like 2 (Homo sapiens) (UniProt Q86UE8). As to the kind of experiment: Inhibition of TLK2 (unknown origin) at 10 uM after 120 mins P33 radiolabeled kinase activity assay.
Experiment [14] has as its target Mitogen-activated protein kinase kinase kinase 3 (Homo sapiens) (UniProt Q99759). As to the kind of experiment: Inhibition of MEKK3 (unknown origin) at 10 uM after 120 mins P33 radiolabeled kinase activity assay.
Experiment [15] relates to Fibroblast growth factor receptor. As to the kind of experiment: Inhibition of FGFR (unknown origin) at 10 uM after 120 mins P33 radiolabeled kinase activity assay. As to conditions: Homo sapiens.
In experiment [16] the target is Serine/threonine-protein kinase ICK (Homo sapiens) (UniProt Q9UPZ9). Nature of the experiment: Inhibition of LCK2 (unknown origin) at 10 uM after 120 mins P33 radiolabeled kinase activity assay.
Experiment [17] has as its target TGF-beta receptor type-2 (Homo sapiens) (UniProt P37173). Nature of the experiment: Inhibition of TGFBR2 (unknown origin) at 10 uM after 120 mins P33 radiolabeled kinase activity assay.
In experiment [18] the target is Calcium/calmodulin-dependent protein kinase type II subunit alpha (Homo sapiens) (UniProt Q9UQM7). Nature of the experiment: Inhibition of CAMK2alpha (unknown origin) at 10 uM after 120 mins P33 radiolabeled kinase activity assay.
Calcium/calmodulin-dependent protein kinase type II subunit alpha (Homo sapiens), sequence (Q9UQM7 whole entry, the tested form may be a part): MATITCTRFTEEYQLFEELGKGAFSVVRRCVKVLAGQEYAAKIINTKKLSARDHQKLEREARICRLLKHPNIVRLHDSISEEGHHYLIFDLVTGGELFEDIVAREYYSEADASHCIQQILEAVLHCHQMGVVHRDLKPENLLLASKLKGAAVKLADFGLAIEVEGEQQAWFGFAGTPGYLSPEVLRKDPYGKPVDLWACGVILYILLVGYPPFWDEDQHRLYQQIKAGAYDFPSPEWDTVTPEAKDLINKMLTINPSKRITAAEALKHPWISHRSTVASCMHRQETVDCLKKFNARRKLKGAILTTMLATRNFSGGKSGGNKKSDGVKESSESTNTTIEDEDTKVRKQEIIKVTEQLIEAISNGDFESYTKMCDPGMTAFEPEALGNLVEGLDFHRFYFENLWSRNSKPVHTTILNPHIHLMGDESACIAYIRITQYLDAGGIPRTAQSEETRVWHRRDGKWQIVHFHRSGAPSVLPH
Experiment [19] has as its target LIM domain kinase 2 (Homo sapiens) (UniProt P53671). Nature of the experiment: Inhibition of LIMK2 (unknown origin) at 10 uM after 120 mins P33 radiolabeled kinase activity assay.
Experiment [20] addresses RAC-gamma serine/threonine-protein kinase (Homo sapiens) (UniProt Q9Y243). Nature of the experiment: Inhibition of AKT3 (unknown origin) at 10 uM after 120 mins P33 radiolabeled kinase activity assay.
The target in experiment [21] is Mitogen-activated protein kinase 7 (Homo sapiens) (UniProt Q13164). Nature of the experiment: Inhibition of ERK5 (unknown origin) at 10 uM after 120 mins P33 radiolabeled kinase activity assay.
For experiment [22], the target named is Serine/threonine-protein kinase WNK1 (Homo sapiens) (UniProt Q9H4A3). Nature of the experiment: Inhibition of WNK1 (unknown origin) at 10 uM after 120 mins P33 radiolabeled kinase activity assay.
Experiment [23] addresses Wee1-like protein kinase (Homo sapiens) (UniProt P30291). Nature of the experiment: Inhibition of WEE1 (unknown origin) at 10 uM after 120 mins P33 radiolabeled kinase activity assay.
Experiment [24] has as its target Serine/threonine-protein kinase 26 (Homo sapiens) (UniProt Q9P289). As to the kind of experiment: Inhibition of MST4 (unknown origin) at 10 uM after 120 mins P33 radiolabeled kinase activity assay.
In experiment [25] the target is Serine/threonine-protein kinase 24 (Homo sapiens) (UniProt Q9Y6E0). Nature of the experiment: Inhibition of MST3 (unknown origin) at 10 uM after 120 mins P33 radiolabeled kinase activity assay.
Experiment [26] concerns the target Serine/threonine-protein kinase Nek6 (Homo sapiens) (UniProt Q9HC98). As to the kind of experiment: Inhibition of NEK6 (unknown origin) at 10 uM after 120 mins P33 radiolabeled kinase activity assay.
Experiment [27] addresses Megakaryocyte-associated tyrosine-protein kinase (Homo sapiens) (UniProt P42679). As to the kind of experiment: Inhibition of CTK (unknown origin) at 10 uM after 120 mins P33 radiolabeled kinase activity assay.
The target of experiment [28] is Dual specificity tyrosine-phosphorylation-regulated kinase 4 (Homo sapiens) (UniProt Q9NR20). Nature of the experiment: Inhibition of DYRK4 (unknown origin) at 10 uM after 120 mins P33 radiolabeled kinase activity assay.
Experiment [29] addresses Serine/threonine-protein kinase 25 (Homo sapiens) (UniProt O00506). As to the kind of experiment: Inhibition of STK25 (unknown origin) at 10 uM after 120 mins P33 radiolabeled kinase activity assay.

RAC-gamma serine/threonine-protein kinase (Homo sapiens), sequence (Q9Y243 whole entry): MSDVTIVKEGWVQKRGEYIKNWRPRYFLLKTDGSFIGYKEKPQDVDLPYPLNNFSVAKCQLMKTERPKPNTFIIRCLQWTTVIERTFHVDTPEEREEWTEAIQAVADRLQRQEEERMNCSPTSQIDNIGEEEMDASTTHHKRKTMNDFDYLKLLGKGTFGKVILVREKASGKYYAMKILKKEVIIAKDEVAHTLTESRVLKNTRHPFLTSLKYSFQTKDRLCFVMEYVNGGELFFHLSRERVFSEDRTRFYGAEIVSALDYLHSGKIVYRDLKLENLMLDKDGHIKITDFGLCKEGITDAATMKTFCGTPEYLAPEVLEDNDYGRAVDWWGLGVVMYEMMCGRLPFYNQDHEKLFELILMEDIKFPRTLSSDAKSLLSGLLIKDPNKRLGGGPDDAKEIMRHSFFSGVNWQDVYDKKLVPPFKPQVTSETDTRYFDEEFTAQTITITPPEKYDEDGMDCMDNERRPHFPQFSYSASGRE
LIM domain kinase 2 (Homo sapiens), sequence (P53671 whole entry, looked up, the tested form may be a part): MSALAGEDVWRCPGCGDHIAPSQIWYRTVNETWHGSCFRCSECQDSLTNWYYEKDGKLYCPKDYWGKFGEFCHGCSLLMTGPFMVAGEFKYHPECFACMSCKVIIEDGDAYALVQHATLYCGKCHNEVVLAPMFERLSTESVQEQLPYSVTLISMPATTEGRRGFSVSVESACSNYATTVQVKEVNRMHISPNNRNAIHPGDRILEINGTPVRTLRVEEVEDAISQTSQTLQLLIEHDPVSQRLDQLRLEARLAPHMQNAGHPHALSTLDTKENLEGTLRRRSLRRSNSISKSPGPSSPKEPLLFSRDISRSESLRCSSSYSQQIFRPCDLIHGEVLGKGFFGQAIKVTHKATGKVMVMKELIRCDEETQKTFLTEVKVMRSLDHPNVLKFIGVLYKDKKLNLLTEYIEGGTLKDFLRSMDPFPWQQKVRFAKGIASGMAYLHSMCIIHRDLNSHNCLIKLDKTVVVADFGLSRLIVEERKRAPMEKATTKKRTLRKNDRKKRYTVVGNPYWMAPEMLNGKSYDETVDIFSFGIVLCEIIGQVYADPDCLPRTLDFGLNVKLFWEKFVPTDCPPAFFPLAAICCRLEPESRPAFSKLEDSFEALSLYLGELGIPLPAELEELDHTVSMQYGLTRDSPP
Dual specificity mitogen-activated protein kinase kinase 4 (Homo sapiens), sequence (P45985 whole entry): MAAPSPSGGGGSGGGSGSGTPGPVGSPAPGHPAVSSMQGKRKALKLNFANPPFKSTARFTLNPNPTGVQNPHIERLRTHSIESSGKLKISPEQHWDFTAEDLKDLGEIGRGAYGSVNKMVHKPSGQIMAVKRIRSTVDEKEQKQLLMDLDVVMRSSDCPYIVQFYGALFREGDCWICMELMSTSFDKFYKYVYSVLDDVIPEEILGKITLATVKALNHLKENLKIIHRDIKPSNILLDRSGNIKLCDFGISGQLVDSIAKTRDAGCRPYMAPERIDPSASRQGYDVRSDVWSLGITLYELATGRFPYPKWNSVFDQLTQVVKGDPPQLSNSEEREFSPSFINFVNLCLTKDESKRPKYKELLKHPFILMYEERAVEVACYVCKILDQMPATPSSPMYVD
Activin receptor type-1B (Homo sapiens), sequence (P36896 whole entry): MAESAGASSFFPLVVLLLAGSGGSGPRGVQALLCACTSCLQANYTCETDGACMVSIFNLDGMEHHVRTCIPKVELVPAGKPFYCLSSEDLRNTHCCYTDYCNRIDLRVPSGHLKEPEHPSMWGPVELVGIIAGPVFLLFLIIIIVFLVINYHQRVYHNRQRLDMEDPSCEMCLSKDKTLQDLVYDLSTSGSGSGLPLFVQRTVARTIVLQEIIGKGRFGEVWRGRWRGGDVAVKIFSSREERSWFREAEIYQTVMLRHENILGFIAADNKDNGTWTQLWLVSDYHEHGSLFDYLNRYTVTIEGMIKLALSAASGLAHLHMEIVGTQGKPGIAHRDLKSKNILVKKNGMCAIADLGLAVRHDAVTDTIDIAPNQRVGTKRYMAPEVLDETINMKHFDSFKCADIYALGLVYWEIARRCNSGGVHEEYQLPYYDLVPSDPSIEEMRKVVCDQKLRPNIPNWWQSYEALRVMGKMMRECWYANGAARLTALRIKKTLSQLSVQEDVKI
Serine/threonine-protein kinase Nek6 (Homo sapiens), sequence (Q9HC98 whole entry): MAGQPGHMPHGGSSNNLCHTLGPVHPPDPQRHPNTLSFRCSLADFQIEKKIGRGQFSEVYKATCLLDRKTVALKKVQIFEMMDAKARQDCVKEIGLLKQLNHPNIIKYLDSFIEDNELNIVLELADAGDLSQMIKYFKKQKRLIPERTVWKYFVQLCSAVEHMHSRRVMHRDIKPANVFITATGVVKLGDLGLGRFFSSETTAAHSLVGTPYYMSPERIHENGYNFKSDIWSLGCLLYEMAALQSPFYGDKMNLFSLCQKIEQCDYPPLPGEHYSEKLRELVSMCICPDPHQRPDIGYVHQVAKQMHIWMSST

As for `CS(=O)(=O)c1cccc(Nc2nccc(-c3sc(N4CCOCC4)nc3-c3cccc(NS(=O)(=O)c4c(F)cccc4F)c3)n2)c1`, the inhibition in experiment [1] is -5.48%; in experiment [2], 19.6%; in experiment [3], 19.4%; in [4], 7.44%; in experiment [5] it was 50%; in [6], -7.87%. The inhibition is 42.4% in experiment [7]; 80.9% in [8]; 92% in [9]; 92.8% in experiment [10]; 11.2% in [11]; 49.7% in experiment [12]. Also, the inhibition is -6.51% in [13]; 9.88% in experiment [14]; 46.7% in experiment [15]; -4.6% in experiment [16]; 96.6% in [17]; -6.79% in experiment [18]. Besides, the inhibition in [19] was found to be 99.1%; in [20], 6.38%.
On to `CC(C)(C)c1cc(NC(=O)Nc2ccc(Oc3ccncc3)cc2)no1`, for which the inhibition in experiment [2] was 6.56%; in [3], 1.14%; in experiment [5], 15.5%; in experiment [9] it was 84.5%; in [21], -8.59%; in experiment [22], 5.52%. Also, the values for the inhibition in experiment [23] and in experiment [19] were -4.91% and 53.8%, respectively.
Consider `COCCNC(=O)c1ccc2c(c1)nc(-c1cnc(-c3ccc(Cl)cc3)[nH]1)n2CCOC`, for which the inhibition in [24] is 3.31%; in experiment [25], 23.8%; in experiment [22] it was 8.03%; in [26], -5.95%; in experiment [27], 10.8%; in experiment [28], -3.46%. For the same compound, the inhibition in experiment [18] is -3.57%; in experiment [29] it was -0.09%; in experiment [20], 6.03%.

What is called inhibition is the relative decrease from the control value, in per cent.
